Measurements from PMC12655637, “Design, Synthesis, and Mechanistic Study of Novel Ciprofloxacin/Thiazole Chalcone Hybrids as Potential Anticancer Agents” (Pharmaceuticals, 2025).

Experiments:
[1] = system: MDA-MB-468; assay: NCI-60 screening, one-dose (10 µM) and five-dose, SRB; format: cell-based, human; conditions: Homo sapiens, MDA-MB-468, 10 μM; MDA-MB-468, Breast Cancer; read-out: Growth percentage
Excerpt: Control cells Test cells FLD
available usually at NCI library.
An aliquot of frozen drug concentrate is […]

[2] = system: SF-539; assay: as above; format: cell-based, human; conditions: Homo sapiens, SF-539, 10 μM; SF-539, CNS Cancer; read-out: Growth percentage
[3] = system: KM12; assay: as above; format: cell-based, human; conditions: Homo sapiens, KM12, 10 μM; KM12, Colon Cancer; read-out: Growth percentage
[4] = system: MDA-MB231/ATCC; assay: as above; format: cell-based; conditions: 10 μM; MDA-MB231/ATCC, Breast Cancer
[5] = system: ACHN; assay: as above; format: cell-based, human; conditions: Homo sapiens, 10 μM, Renal Cancer, read-out: Growth percentage
[6] = system: HT29; assay: as above; format: cell-based, human; conditions: Homo sapiens, HT-29; 10 μM; HT29, Colon Cancer; read-out: Growth percentage
[7] = system: HS 578T; assay: as above; format: cell-based, human; conditions: Homo sapiens, 10 μM, Breast Cancer, read-out: Growth percentage
[8] = system: SK-OV-3; assay: as above; format: cell-based, human; conditions: Homo sapiens; 10 μM; SK-OV-3, Ovarian Cancer; read-out: Growth percentage
[9] = system: SW-620; assay: as above; format: cell-based, human; conditions: Homo sapiens; 10 μM; SW-620, Colon Cancer; read-out: Growth percentage
[10] = system: BT-549; assay: as above; format: cell-based; conditions: Homo sapiens; 10 μM; BT-549, Breast Cancer; read-out: Growth percentage
[11] = system: A549/ATCC; assay: as above; format: cell-based, human; conditions: Homo sapiens, 10 μM, Non-Small-Cell Lung Cancer, read-out: Growth percentage
[12] = system: HL-60(TB); assay: as above; format: cell-based, human; conditions: Homo sapiens, HL-60, 10 μM; HL-60(TB), Leukemia; read-out: Growth percentage
[13] = system: SNB-19; assay: as above; format: cell-based; conditions: Homo sapiens, SNB-19, read-out: Growth percentage
[14] = system: HCT-15; assay: as above; format: cell-based, human; conditions: Homo sapiens; 10 μM; HCT-15, Colon Cancer; read-out: Growth percentage
[15] = system: OVCAR-8; assay: as above; format: cell-based, human; conditions: Homo sapiens; 10 μM; OVCAR-8, Ovarian Cancer; read-out: Growth percentage
[16] = system: SN12C; assay: as above; format: cell-based, human; conditions: Homo sapiens, 10 μM, Renal Cancer, read-out: Growth percentage
[17] = system: SK-MEL-2; assay: as above; format: cell-based, human; conditions: Homo sapiens; 10 μM; SK-MEL-2, Melanoma; read-out: Growth percentage
[18] = system: NCI/ADR-RES; assay: as above; format: cell-based, human; conditions: Homo sapiens, 10 μM, Ovarian Cancer, read-out: Growth percentage
[19] = system: NCI-H522; assay: as above; format: cell-based, human; conditions: Homo sapiens; 10 μM; NCI-H522, Non-Small-Cell Lung Cancer; read-out: Growth percentage
[20] = system: OVCAR-5; assay: as above; format: cell-based, human; conditions: 10 μM; OVCAR-5, Ovarian Cancer
[21] = system: TK-10; assay: as above; format: cell-based, human; conditions: Homo sapiens; 10 μM; TK-10, Renal Cancer; read-out: Growth percentage
[22] = system: T-47D; assay: as above; format: cell-based, human; conditions: 10 μM, Breast Cancer
[23] = system: MOLT-4; assay: as above; format: cell-based, human; conditions: Homo sapiens; 10 μM; MOLT-4, Leukemia; read-out: Growth percentage
[24] = system: OVCAR-3; assay: as above; format: cell-based; conditions: Homo sapiens; 10 μM; OVCAR-3, Ovarian Cancer; read-out: Growth percentage
[25] = system: 60 human cancer cell lines; assay: NCI-60 screening, full panel (mean growth, MID a, ranges over all lines); conditions: Homo sapiens, read-out: Mean growth percentage
[26] = system: MDA-MB-435; assay: NCI-60 screening, one-dose (10 µM) and five-dose, SRB; format: cell-based; conditions: Homo sapiens, MDA-MB-435, read-out: Growth percentage, 10 μM; MDA-MB-435, Melanoma
[27] = system: NCI-H226; assay: as above; format: cell-based, human; conditions: Homo sapiens; 10 μM; NCI-H226, Non-Small-Cell Lung Cancer; read-out: Growth percentage
[28] = system: HOP-62; assay: as above; format: cell-based, human; conditions: Homo sapiens, HOP-62, 10 μM; HOP-62, Non-Small-Cell Lung Cancer; read-out: Growth percentage
[29] = system: UACC-257; assay: as above; format: cell-based, human; conditions: Homo sapiens; 10 μM; UACC-257, Melanoma; read-out: Growth percentage
[30] = system: CCRF-CEM; assay: as above; format: cell-based, human; conditions: Homo sapiens, 10 μM, Leukemia, read-out: Growth percentage

**Q.** Which activity at 10 µM [1] does the source give for `Cc1nc(SCC(=O)N2CCN(c3cc4c(cc3F)c(=O)c(C(=O)O)cn4C3CC3)CC2)sc1C(=O)/C=C/c1ccc(Cl)cc1` [Compound 4c, (E)-7-(4-(2-((5-(3-(4-Chlorophenyl)acryloyl)-4-methylthiazol-2-yl)thio)acetyl)piperazin-1-yl)-1-cyclopropyl-6-fluoro-4-oxo-1,4-dihydroquinoline-3-carboxylic Acid] here?
**A.** 110%

**Q.** And the activity at 10 µM [2]?
**A.** 97.7%

**Q.** What about the activity at 10 µM [3] of the same compound?
**A.** 104%

**Q.** What about the Growth percentage [4] of the same compound?
**A.** 100.1%

**Q.** And the activity at 10 µM [5]?
**A.** 96.4%

**Q.** What about the activity at 10 µM [6] of the same compound?
**A.** 108%

**Q.** And the activity at 10 µM [7]?
**A.** 105%

**Q.** And the activity at 10 µM [8]?
**A.** 129%

**Q.** And the activity at 10 µM [9]?
**A.** 113%

**Q.** And the activity at 10 µM [10]?
**A.** 85.9%

**Q.** What about the activity at 10 µM [11] of the same compound?
**A.** 115%

**Q.** What about the activity at 10 µM [12] of the same compound?
**A.** 92.9%

**Q.** What about the activity at 10 µM [13] of the same compound?
**A.** 100%

**Q.** What about the activity at 10 µM [14] of the same compound?
**A.** 102%

**Q.** What about the activity at 10 µM [15] of the same compound?
**A.** 76.3%

**Q.** And the activity at 10 µM [16]?
**A.** 96.7%

**Q.** And the activity at 10 µM [17]?
**A.** 99.4%

**Q.** And the activity at 10 µM [18]?
**A.** 98.9%

**Q.** And the activity at 10 µM [19]?
**A.** 95.9%

**Q.** What about the Growth percentage [20] of the same compound?
**A.** 100.3%

**Q.** What about the activity at 10 µM [21] of the same compound?
**A.** 106%

**Q.** And the Growth percentage [22]?
**A.** 116.3%

**Q.** What about the activity at 10 µM [23] of the same compound?
**A.** 103%

**Q.** And the activity at 10 µM [24]?
**A.** 188%

**Q.** And the activity at 10 µM [25]?
**A.** 103%

**Q.** What about the activity at 10 µM [26] of the same compound?
**A.** 102%

**Q.** What about the activity at 10 µM [27] of the same compound?
**A.** 107%

**Q.** And the activity at 10 µM [28]?
**A.** 122%

**Q.** And the activity at 10 µM [29]?
**A.** 117%

**Q.** And the activity at 10 µM [30]?
**A.** 102%
